# Experimental data published in ChEMBL document CHEMBL2429724, “Computational POM evaluation of experimental in vitro Trypanosoma cruzi and Mycobacterium tuberculosis inhibition of heterocyclic-2-carboxylic acid (3-cyano-1,4-di-noxidequinoxalin-2-yl)amide derivatives” (Med Chem Res, 2013).
# Experiments:
# [1] = tested on: Mycobacterium tuberculosis; assay: Antimicrobial activity against Mycobacterium tuberculosis H37Rv ATCC 27294 by microplate Alamar Blue assay; assay type: functional
# Trypanosoma cruzi [2] = assay: Antimicrobial activity against benznidazole-resistant epimastigotes of Trypanosoma cruzi Tulahuen 2 assessed as growth inhibition at 25 uM measured on day 5 by spectrophotometry; assay type: functional; details: Tulahuen 2, 120 h, read-out: GI
# Trypanosoma cruzi [3] = assay: Antimicrobial activity against benznidazole-resistant epimastigotes of Trypanosoma cruzi Tulahuen 2 assessed as growth inhibition measured on day 5 by spectrophotometry; assay type: functional, organism-based; details: Tulahuen 2, 120 h
Compound,MIC [1] [µg/mL],inhibition of growth at 25 µM (Trypanosoma cruzi [2]) [%],MIC (Trypanosoma cruzi [3]) [µM]
N#Cc1c(NC(=O)c2ccco2)[n+]([O-])c2cc(F)c(F)cc2[n+]1[O-],4.7,53,–
N#Cc1c(NC(=O)c2cccs2)[n+]([O-])c2cc(F)c(F)cc2[n+]1[O-],–,92,–
N#Cc1c(NC(=O)c2ccc([N+](=O)[O-])o2)[n+]([O-])c2ccc(C(F)(F)F)cc2[n+]1[O-],14.4,–,–
N#Cc1c(NC(=O)c2ccc([N+](=O)[O-])s2)[n+]([O-])c2ccccc2[n+]1[O-],2.88,0,–
Cc1ccc2c(c1)[n+]([O-])c(C#N)c(NC(=O)c1ccc([N+](=O)[O-])s1)[n+]2[O-],–,11.4,–
Cc1cc2c(cc1C)[n+]([O-])c(NC(=O)c1ccc([N+](=O)[O-])s1)c(C#N)[n+]2[O-],–,36.4,–
COc1ccc2c(c1)[n+]([O-])c(C#N)c(NC(=O)c1ccc([N+](=O)[O-])s1)[n+]2[O-],9.54,–,–
N#Cc1c(NC(=O)c2ccc([N+](=O)[O-])s2)[n+]([O-])c2ccc(Cl)cc2[n+]1[O-],–,15,–
N#Cc1c(NC(=O)c2ccc([N+](=O)[O-])s2)[n+]([O-])c2cc(Cl)c(Cl)cc2[n+]1[O-],–,29.8,–
N#Cc1c(NC(=O)c2ccc([N+](=O)[O-])s2)[n+]([O-])c2ccc(F)cc2[n+]1[O-],–,2.5,–
N#Cc1c(NC(=O)c2ccc([N+](=O)[O-])s2)[n+]([O-])c2cc(F)c(F)cc2[n+]1[O-],–,9.2,–
N#Cc1c(NC(=O)c2ccc([N+](=O)[O-])s2)[n+]([O-])c2cc(C(F)(F)F)ccc2[n+]1[O-],1.7,–,–
N#Cc1c(NC(=O)c2ccc([N+](=O)[O-])s2)[n+]([O-])c2ccc(C(F)(F)F)cc2[n+]1[O-],6,–,–
N#Cc1c(NC(=O)c2cccs2)[n+]([O-])c2ccc(F)cc2[n+]1[O-],1.47,27.5,–
N#Cc1c(NC(=O)c2cccs2)[n+]([O-])c2cc(F)ccc2[n+]1[O-],4.58,–,–
N#Cc1c(NC(=O)c2cccs2)[n+]([O-])c2ccc(C(F)(F)F)cc2[n+]1[O-],9.18,–,–
N#Cc1c(NC(=O)c2ccc([N+](=O)[O-])o2)[n+]([O-])c2ccccc2[n+]1[O-],–,0.7,–
Cc1ccc2c(c1)[n+]([O-])c(C#N)c(NC(=O)c1ccc([N+](=O)[O-])o1)[n+]2[O-],–,0,–
Cc1cc2c(cc1C)[n+]([O-])c(NC(=O)c1ccc([N+](=O)[O-])o1)c(C#N)[n+]2[O-],–,0,–
COc1ccc2c(c1)[n+]([O-])c(C#N)c(NC(=O)c1ccc([N+](=O)[O-])o1)[n+]2[O-],14.5,–,–
N#Cc1c(NC(=O)c2ccc([N+](=O)[O-])o2)[n+]([O-])c2ccc(Cl)cc2[n+]1[O-],5.81,–,–

Compound,MIC [1] [µg/mL],inhibition of growth at 25 µM (Trypanosoma cruzi [2]) [%],MIC (Trypanosoma cruzi [3]) [µM]
N#Cc1c(NC(=O)c2ccc([N+](=O)[O-])o2)[n+]([O-])c2cc(Cl)c(Cl)cc2[n+]1[O-],13.6,–,–
N#Cc1c(NC(=O)c2ccc([N+](=O)[O-])o2)[n+]([O-])c2ccc(F)cc2[n+]1[O-],21.7,–,–
N#Cc1c(NC(=O)c2ccc([N+](=O)[O-])o2)[n+]([O-])c2cc(F)c(F)cc2[n+]1[O-],22.2,–,–
N#Cc1c(NC(=O)c2ccc([N+](=O)[O-])o2)[n+]([O-])c2cc(C(F)(F)F)ccc2[n+]1[O-],12.8,–,–
N#Cc1c(NC(=O)c2ccco2)[n+]([O-])c2ccc(Cl)cc2[n+]1[O-],15.4,–,–
N#Cc1c(NC(=O)c2ccco2)[n+]([O-])c2cc(Cl)c(Cl)cc2[n+]1[O-],–,31.6,–
N#Cc1c(NC(=O)c2ccco2)[n+]([O-])c2ccc(F)cc2[n+]1[O-],–,19.8,–
N#Cc1c(NC(=O)c2ccco2)[n+]([O-])c2cc(C(F)(F)F)ccc2[n+]1[O-],17.9,–,–
N#Cc1c(NC(=O)c2ccco2)[n+]([O-])c2ccc(C(F)(F)F)cc2[n+]1[O-],24.2,–,–
N#Cc1c(NC(=O)c2cccs2)[n+]([O-])c2ccccc2[n+]1[O-],5.38,19,–
Cc1ccc2c(c1)[n+]([O-])c(C#N)c(NC(=O)c1cccs1)[n+]2[O-],2.08,16.4,–
Cc1cc2c(cc1C)[n+]([O-])c(NC(=O)c1cccs1)c(C#N)[n+]2[O-],1.19,13.5,–
COc1ccc2c(c1)[n+]([O-])c(C#N)c(NC(=O)c1cccs1)[n+]2[O-],48.9,15.1,–
N#Cc1c(NC(=O)c2cccs2)[n+]([O-])c2ccc(Cl)cc2[n+]1[O-],2.47,–,–
N#Cc1c(NC(=O)c2cccs2)[n+]([O-])c2cc(Cl)c(Cl)cc2[n+]1[O-],13.6,–,–
N#Cc1c(NC(=O)c2ccco2)[n+]([O-])c2ccccc2[n+]1[O-],0.977,3.1,–
Cc1ccc2c(c1)[n+]([O-])c(C#N)c(NC(=O)c1ccco1)[n+]2[O-],8.84,11.6,–
Cc1cc2c(cc1C)[n+]([O-])c(NC(=O)c1ccco1)c(C#N)[n+]2[O-],–,13.1,–
COc1ccc2c(c1)[n+]([O-])c(C#N)c(NC(=O)c1ccco1)[n+]2[O-],–,9.5,–
CC1CS(=O)(=O)CCN1/N=C/c1ccc([N+](=O)[O-])o1 (configuration not stated) [NIFURTIMOX],–,100,7.7
CO[C@H]1/C=C/O[C@@]2(C)Oc3c(C)c(O)c4c(O)c(c(/C=N/N5CCN(C)CC5)c(O)c4c3C2=O)NC(=O)/C(C)=C\C=C\[C@H](C)[C@H](O)[C@@H](C)[C@@H](O)[C@@H](C)[C@H](OC(C)=O)[C@@H]1C [RIFAMPIN],0.125,–,–
